Measured values reported in US20190224222A1, “METHOD OF INHIBITING QUORUM SENSING USING D-GALACTOSE” (Seoul National University R&DB Foundation, priority 2014, published 2019).

Experiments:
[1] = test system: T. forsythia (Tf) biofilm; experiment: Tf biofilm formation induced by Fn AI-2, fluorescence staining (confocal); assay type: cell-based, T. forsythia (ATCC 43037); details: D-rib or D-gal 200 mM
Description: (§1) Further, inhibitory effects of individual QSI candidates on Tf biofilm formation induced by Fn AI-2 were examined by fluorescence staining. 2 ml of Tf culture broth (the number of bacteria: 2×10^8/ml) was used, and Fn AI-2 was used in a volume of 10% (v/v) with respect to the total volume of a mixture with Tf culture broth. As the QSI candidates, 200 mM of D-rib or D-gal was used, and 20 μM of the furanone compound was used. Biofilms formed on the cover slip were stained with fluorescent materials using the live/dead-BacLight viability kit (Invitrogen, Grand Island, N.Y., USA) and observed using a confocal microscope (Carl Zeiss, LSM 700). […] Fluorescence intensities of the obtained individual fluorescence images were quantified using ZEN 2010 program of a confocal microscope, and shown in FIG. 9.

[2] = test system: F. nucleatum (Fn) biofilm; experiment: Fn biofilm formation induced by Fn AI-2, fluorescence staining (confocal); assay type: cell-based, F. nucleatum (ATCC 25586); details: D-rib or D-gal 200 mM, Fn AI-2 10% (v/v)
Description: as §1, with “Fn” for “Tf”, “2×10^7/ml)” for “2×10^8/ml)”, “3.” for “9.”

[3] = test system: Fn AI-2 activity; experiment: AI-2 activity, bioluminescence of reporter strain V. harveyi BB170; assay type: cell-based, Vibrio harveyi BB170 (ATCC BAA-1117); details: for Bioluminescence: V. harveyi BB170 + Fn AI-2 10% (v/v), sugar 20 mM, lower = higher inhibition, Fn/AI-2 control 10712312, BB170 alone 856873
Description: The quorum sensing autoinducer, AI-2 stimulates luciferase operon (lux genes) of V. harveyi to induce luciferase expression, resulting in luminescence. Therefore, inhibition of AI-2 activity was confirmed by measuring bioluminescence by AI-2. Bioluminescence mediated by AI-2 was determined using the AI-2 reporter strain V. harveyi BB170. V. harveyi BB170 was cultured in AB medium overnight at 30° C. until OD600 nm=0.7. The bacteria were washed with fresh AB medium and diluted to a concentration of 10^6 cells/ml. Thereafter, V. harveyi BB170 culture broth (5 ml) was mixed with a partially purified F. nucleatum AI-2(′Fn AI-2′) and D-gal (0 or 20 mM) or D-rib (0 or 20 mM). The partially purified Fn AI-2 was obtained by partially purifying the Fn culture broth using a C18 Sep-Pak reverse-phase column (Waters Co., Milford, Mass.). The Fn culture broth or the partially purified Fn AI-2 was added such that a final concentration of AI-2 in the mixture was 10% (vol/vol). 10% (v/v) of Fn AI-2 corresponds to the Fn bacterial number of 1.9×10^8. Then, culture was performed at 30° C. for 1-8 hours. The bioluminescence was measured using a luminometer (GloMax1—Multi detection System, Promega, Madison, Wis.). BB170 is one of V. harveyi bacteria which have a characteristic of recognizing AI-2 to show bioluminescence. The higher bioluminescence value thus measured represents higher AI-2 activity.

[4] = test system: S. oxalis (So) biofilm; experiment: S. oxalis biofilm formation, crystal violet staining; assay type: cell-based, Streptococcus oxalis (ATCC 9811); details: for OD590: So on saliva-coated glass slip, sugar 2 mM, So control 0.59
Description: 2 mL (2×10^7/ml) of the culture broth of a representative cariogenic bacterium S. mutans (Sm) and 2 mL (2×10^7/ml) of the culture broth of one of normal oral flora, S. oxalis (SO) were added to a saliva-coated glass slip (round, 12 mm radius), respectively and cultured with 0 mM or 2 mM of D-galactose to form biofilms. […] Further, the biofilms were stained with fluorescent materials using the live/dead-BacLight viability kit (Invitrogen, Grand Island, N.Y., USA), followed by analysis. For comparison, 2 μM of the furanone compound was used instead of D-galactose to perform the same test.

[5] = test system: T. forsythia (Tf) biofilm; experiment: Tf biofilm formation induced by Fn AI-2, crystal violet staining; assay type: cell-based, T. forsythia (ATCC 43037); details: for OD590 nm: Tf + Fn AI-2 10% (v/v), sugar 2 mM, 48-72 h, Tf/AI-2 control 0.48, Tf 0.32; for inhibitory effect on Tf biofilm formation, in words: crystal violet, sugars 2 mM
Description: To test biofilm formation by Tf, a test was performed in the same manner as in Example 3. That is, a Tf culture broth (2 ml; a negative control group, the number of bacteria: 2×10^8/ml), a mixture of Tf culture broth (2 ml) and Fn AI-2 (10% (v/v) with respect to the total volume of the mixture with Tf culture broth), or a mixture of Tf culture broth (2 ml) and Fn AI-2 (10% (v/v) with respect to the total volume of the mixture with Tf culture broth) and D-gal (2 mM) was added to a 24-well plate with a glass slip (round, 12 mm radius), and cultured under anaerobic conditions for 48-72 hours. For comparison, 2 mM of D-rib or 2 μM of the furanone compound [(5Z)-4-bromo-5-(bromomethylene)-2(5H)-furanone] was used instead of D-gal to perform the same test.
Biofilms formed on the cover slips were stained with 10% crystal violet [Tris(4-(dimethylamino)phenyl)methylium chloride] for 10 minutes, washed three times with PBS, and destained with 1 ml of acetone-alcohol (20:80, vol/vol). The optical density at 590 nm of the destaining solution containing crystal violet was measured using a microplate reader (a Wallac Victor3 microtiter, PerkinElmer Life Sciences, Waltham, Mass.). The smaller optical density (OD590) measured at 590 nm represents more inhibition of biofilm formation, that is, higher quorum sensing inhibitory effect of the used QSI candidate.

SMILES | inhibitory effect on Tf biofilm formation, in words [1] | inhibitory effect on Fn biofilm formation, in words [2] | bioluminescence relative to the bioluminescence upon addition of D-rib ([3]; D-gal 20 mM vs D-rib 20 mM) | Bioluminescence [3] | quorum sensing inhibitory efficacy relative to D-ribose, in words ([3]; general statement of the specification) | OD590 [4] | effect on So biofilm formation, in words ([4]; crystal violet, D-gal 2 mM compared to D-rib and the furanone compound) | OD590 nm [5] | inhibitory effect on Tf biofilm formation, in words [5]
O=C[C@H](O)[C@@H](O)[C@@H](O)[C@H](O)CO [D-gal, D-galactose] | most excellent inhibitory effect | remarkably excellent inhibitory effect | about 20% | 1138752 | twice higher than that of D-ribose | 1.07 | did not inhibit but increased biofilm formation | 0.2 | excellent inhibitory effect
O=C[C@H](O)[C@H](O)[C@H](O)CO [D-rib, D-ribose, reference compound] | inhibited | inhibited | – | 5481975 | – | 0.85 | – | 0.41 | significant inhibitory effect
